In ChEMBL document CHEMBL1154133, “Pestalazines and pestalamides, bioactive metabolites from the plant pathogenic fungus Pestalotiopsis theae” (J Nat Prod, 2008):
Converted amounts (≈) assume the structure as drawn. Structures can show the parent of a compound that is named as a salt.

Tests used:
Aspergillus fumigatus [1] = assay: Antifungal activity against Aspergillus fumigatus ATCC 10894 by alamar blue assay; type: functional
[2] = system: Human immunodeficiency virus 1; assay: Antiviral activity against HIV1 LAI infected in human C8166 cells assessed as inhibition of viral replication by ELISA; type: functional, organism-based; conditions: Human immunodeficiency virus 1, LAI
[3] = Cytotoxicity against human C8166 cells after 4 days by MTT assay; type: cell-based
Aspergillus fumigatus [4] = assay: Antifungal activity against Aspergillus fumigatus ATCC 10894 by microplate reader assay; type: functional, organism-based

Structure (SMILES)	MIC (Aspergillus fumigatus [1])	EC50 [2]	CC50 at 96 h [3]	IC50 (Aspergillus fumigatus [4])
OC(Cn1cncn1)(Cn1cncn1)c1ccc(F)cc1F [FLUCONAZOLE]	163 µM (≈ 50 µg/mL)	–	–	–
CC(C)(C)NC(=O)[C@@H]1CN(Cc2cccnc2)CCN1C[C@@H](O)C[C@@H](Cc1ccccc1)C(=O)N[C@H]1c2ccccc2C[C@H]1O [INDINAVIR SULFATE]	–	0.0055 µM	–	–
C[C@@H](CC(=O)NC(=O)c1coc(Cc2ccccc2)cc1=O)C(=O)O [PESTALAMIDE A]	57.8 µM (≈ 19.8 µg/mL)	64.2 µM	> 100 µM	1.5 µM
